In patent US8765977B2, “Hydroxylated contrast enhancement agents and imaging method” (General Electric Company, priority 2010, dated 2014):

Assay: Ascorbic acid oxidation assay
Format: physicochemical
Conditions: 20 μM chelate (30 mol %), 67 μM ascorbic acid in PBS, 45 minutes, FIG. 1
Protocol: The UV-Vis spectrum of an ascorbic acid solution (67 μM, 12 μg·mL-1) in phosphate buffered saline (PBS) (3 mL) was recorded. The absorbance intensity at λmax=265 nm was observed. An aliquot (30 μL) of iron chelate of ethylenediaminetetraacetic acid (FeEDTA) in PBS (2 mM, 0.7 mg·mL-1) was added to afford a catalytic quantity of FeEDTA (20 μM, 30 mol %) with respect to ascorbic acid. The absorbance intensity (λmax=265 nm) was recorded at intervals of 1 minute for a period of 45 minutes and the data normalized to the t0 absorbance. The experiment was then repeated identically using iron chelate complex FeHBEDP(OH)3 (20 μM, 30 mol %).

consumption of ascorbic acid: consumes ascorbic acid completely
Structure (SMILES): O=C([O-])CN(CCN(CC(=O)[O-])CC(=O)[O-])CC(=O)[O-].[Fe+3] [FeEDTA, iron chelate of ethylenediaminetetraacetic acid]
